US20100257640A1, “METHOD FOR GROWING SUGARCANE” (SYNGENTA CROP PROTECTION, INC., priority 2007, published 2010)

Columns and labels:
[1] = system: sugar cane Variety RB 86-7515; assay: Greenhouse pot test: effect of formulated clothianidin on vigour; format: in vivo; settings: carretels; result in words
Method: Greenhouse test with sugarcane buds growing in pots were conducted to study the effect of clothianidin equivalent to an application rate of 200 g ai. ha^−1 on “vigour”, evaluating tillers, plant height, leaf width and culm diameter. This trial was conducted on sugar cane Variety RB 86-7515.
1) carretel with one bud treated with clothianidin (200 g ai. ha^−1) 2) carretel with one bud treated with clothianidin (200 g ai. ha^−1)+15% v/v of polymer 3) stalk with 3 buds untreated 4) carretel with one bud untreated+15% v/v of polymer 5) carretel with one bud untreated 6) stalk with 3 buds treated with clothianidin (200 g ai. ha^−1).
Twenty 1 L pots were filled with 16 L of clay soil, 1.6 L of sand and 8 g of nitrogen, 28 g of phosphorus (P2O5) and 16 g of potassium (K2O). Six carretels of 4 cm length with one bud were planted in each pot (treatments 1, 2, 4 and 5). Two stalks with three buds were planted in each control pot (treatments 3 and 6) to simulate conventional planting. A layer of 3 cm of soil was used to cover the carretels. The carretels of treatments 1 and 2 were treated with 200 g ai.ha^−1 of clothianidin, by dipping the carretels in a slurry for 3 min. The stalks were treated simulating a furrow application at 100 L.ha^−1 of slurry. The pots were maintained with adequate moisture during the test. […]

[2] = system: sugar cane Variety RB 86-7515; assay: Greenhouse pot test: effect of formulated fipronil on vigour; format: in vivo; settings: result in words
Method: Greenhouse test with sugarcane buds growing in pots were conducted to study the effect of fipronil equivalent to an application rate of 200 g. ha^−1 on “vigour”, evaluating tillers, plant height, leaf width and culm diameter on sugar cane Variety RB 86-7515.
Twenty 1 L pots were filled with 16 L of clay soil, 1.6 L of sand and 8 g of nitrogen, 28 g of phosphorus (P2O5) and 16 g of potassium (K2O). Six carretels of 4 cm length with one bud were planted in each pot (treatments 1, 2, 4 and 5). Two stalks with three buds were planted in each control pot (treatments 3 and 6) to simulate conventional planting. A layer of 3 cm of soil was used to cover the carretels. The carretels of treatments 1 and 2 were treated with 200 g ai.ha^−1 of fipronil, by dipping the carretels in the slurry for 3 min, based on the uptake capacity of carretels. The stalks were treated simulating a furrow application at 100 L.ha^−1 of slurry. Experimental design adopted was randomized complete block with four replications. The pots were maintained with adequate moisture during the test. Evaluations of: plant height, leaf width, culm diameter and number of tillers were done at 20, 30 and 42 days after planting.

[3] = system: sugar cane Variety RB 86 7515; assay: Greenhouse pot test: effect of formulated imidacloprid on vigour; format: in vivo; settings: result in words
Excerpt: 1) carretel with one bud treated with Imidacloprid (1200 g. ha^−1) 2) carretel with one bud treated with Imidacloprid (1200 g. ha^−1)+15% v/v of polymer 3) stalk with 3 buds untreated 4) carretel with one bud untreated 5) carretel with one bud untreated+15% v/v of polymer 6) stalk with 3 buds treated with Imidacloprid (1200 g. ha^−1).
Twenty 1 L pots were filled with 16 L of clay soil, 1.6 L of sand and 8 g of nitrogen, 28 g of phosphorus (P2O5) and 16 g of potassium (K2O). Six carretels of 4 cm length with one bud were planted in each pot (treatments 1, 2, 4 and 5). Two stalks with three buds were planted in each control pot (treatments 3 and 6) to simulate conventional planting. A layer of 3 cm of soil was used to cover the carretels. The carretels of treatments 1 and 2 were treated with 1200 g ai.ha^−1 of imidacloprid, by dipping the carretels in the slurry for 3 min, based on the uptake capacity of carretels. The stalks were treated simulating a furrow application at 100 L.ha^−1 of slurry. Experimental design adopted was randomized complete block with four replications. The pots were maintained with adequate moisture during the test. Evaluations of: plant height, leaf width, culm diameter and number of tillers were done at 20, 30 and 42 days after planting.

[4] = system: Variety RB 86-7515; assay: Greenhouse pot test: effect of formulated thiamethoxam on vigour; format: in vivo, sugarcane
Method: This trial was conducted on Variety RB 86-7515.

[5] = system: sugar cane Variety RB 86-7515; assay: Greenhouse pot test: effect of formulated abamectin on vigour (tillers, plant height, leaf width, culm diameter); format: in vivo
Method: Greenhouse test with sugarcane buds growing in pots were conducted to study the effect of formulated abamectin regarding “vigour”, tillers, plant height, leaf width and culm diameter on sugar cane Variety RB 86-7515.
1) carretel with one bud treated with abamectin 2) carretel with one bud treated with abamectin+15% v/v of polymer 3) stalk with 3 buds untreated 4) carretel with one bud untreated 5) carretel with one bud untreated+15% v/v of polymer 6) stalk with 3 buds treated with abamectin.
Twenty 1 L pots were filled with 16 L of clay soil, 1.6 L of sand and 8 g of nitrogen, 28 g of phosphorus (P2O5) and 16 g of potassium (K2O). Six carretels of 4 cm length with only one bud were planted in each pot (treatments 1, 2, 4 and 5). Two stalks with three buds were planted in each control pot (treatments 3 and 6) to simulate conventional planting. A layer of 3 cm of soil was used to cover the carretels. The carretels of treatments 1, 2 were treated with 200 ml/ha of abamectin, by dipping the carretels in the slurry for 3 min, based on the uptake capacity of carretels. The stalks were treated simulating a furrow application at 100 L.ha^−1 of slurry. Experimental design adopted was randomized complete block with four replications. The pots were maintained with adequate moisture during the test. […]

Compound: CN/C(=N\[N+](=O)[O-])NCc1cnc(Cl)s1 [Clothianidin, clothianidin]
- number of tillers in comparison with the corresponding control (untreated, one-bud) [1]: increased number of tillers
- plant height in comparison with the corresponding control (untreated, one-bud) [1]: slight reduction in the plant height

Compound: N#Cc1nn(-c2c(Cl)cc(C(F)(F)F)cc2Cl)c(N)c1[S+]([O-])C(F)(F)F (stereo not shown) [Fipronil, fipronil]
- height of the resultant plants in comparison with the control [2]: decreased the height of the resultant plants in comparison with the control
- number of tillers in comparison with the control [2]: increased the number of tillers present on the plants

Compound: O=[N+]([O-])NC1=NCCN1Cc1ccc(Cl)nc1 [Imidacloprid, imidacloprid]
- number of tillers in comparison with the control [3]: increase in the number of tillers in comparison with the control

Compound: CN1COCN(Cc2cnc(Cl)s2)/C1=N\[N+](=O)[O-] [Thiamethoxam, thiamethoxam]
- increase in "quality" ([4]; against the other treatments, not apparent from the listed parameters): greater than the other treatments
- number of tillers in comparison with the corresponding controls ([4]; carretels, result in words): increased number of tillers
- plant height in comparison with the corresponding controls ([4]; carretels, result in words): reduced plant height

Compound: abamectin
- Tillers ([5]; carretel with one bud, dipped 3 min, 100 g ai/ha (Untreated + Polymer 0.0), polymer 15% v/v where named, 42 days after planting): 14 number
- number of tillers in comparison with the control ([5]; result in words): increase in the number of tillers in comparison with the control
